Assay results published in patent US9969741B2, “Pyrazolotriazines as inhibitors of nucleases” (MASARYKOVA UNIVERZITA, priority 2014, dated 2018).

Key:
MRE11 = biological target: T1, MRE11 (Saccharomyces cerevisiae, UniProt P32829); assay: Nuclease inhibition assay, MRE11 (5′ flap fluorescent DNA substrate, gel readout); type: biochemical, yeast; settings: 5 nM enzyme, 5 nM 5′ flap substrate, 15 min at 30° C.
T1 construct: made in house; host or cells: S. cerevisiae protease-deficient strain BJ5464
T1 sequence (P32829 1-692): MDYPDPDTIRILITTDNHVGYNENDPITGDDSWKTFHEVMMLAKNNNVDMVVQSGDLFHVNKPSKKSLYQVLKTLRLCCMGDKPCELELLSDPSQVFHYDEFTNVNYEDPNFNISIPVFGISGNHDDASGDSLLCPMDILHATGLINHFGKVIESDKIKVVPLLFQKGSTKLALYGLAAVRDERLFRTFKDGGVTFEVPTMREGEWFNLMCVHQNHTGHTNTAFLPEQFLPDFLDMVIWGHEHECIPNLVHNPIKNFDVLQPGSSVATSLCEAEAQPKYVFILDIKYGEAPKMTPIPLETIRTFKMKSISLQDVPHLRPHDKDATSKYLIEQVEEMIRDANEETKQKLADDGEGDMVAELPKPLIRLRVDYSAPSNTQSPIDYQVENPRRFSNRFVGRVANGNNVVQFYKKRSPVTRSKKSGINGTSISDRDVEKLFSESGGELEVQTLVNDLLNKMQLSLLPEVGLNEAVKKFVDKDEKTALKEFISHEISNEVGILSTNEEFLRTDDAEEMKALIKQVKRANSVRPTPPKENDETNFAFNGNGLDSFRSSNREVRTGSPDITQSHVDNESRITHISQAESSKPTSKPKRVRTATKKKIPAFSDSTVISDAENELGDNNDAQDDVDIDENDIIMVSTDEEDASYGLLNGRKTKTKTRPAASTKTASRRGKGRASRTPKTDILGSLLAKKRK
Source text: (§1) In vitro assays were used for the determination of compound's IC50 values for inhibition of individual nucleases, i.e., MUS81/EME1, FEN1, EXO1, and MRE11. To generate IC50 values, concentration of compound was plotted against relative nuclease activity (in %). The dose-response curves were generated from inhibition data, from 5 point serial dilutions of inhibitory compounds, each in triplicate and fitted to a standard sigmoid curve. IC50 values were derived by standard nonlinear regression analysis.
(§2) All tested compounds were diluted in 100% DMSO (dimethylsulfoxide) to prepare working stocks with different concentrations. To keep the DMSO concentration constant in every reaction, always 0.5 μl of the compound stock was added to the reaction buffer. The reaction buffer differs depending on the enzyme tested. Also concentration of the compounds in the reaction depends on the particular enzyme, since the inhibitory effect of the compounds vary between the enzymes. Nevertheless, always doubling dilutions in the range 200-0.8 μM was used. The compound was added as the first component in the reaction buffer, followed by the enzyme addition. […]
(§3) For this experiment we prepared short fluorescently labeled oligonucleotide-based DNA substrates with specific structures reflecting the biochemical activities of tested individual nucleases (Table 1). […] For visualization, each substrate was labeled by fluorescent dye (fluorescein), which can be detected in the gel using appropriate imaging system (FLA-9000, Fuji) with filters for particular wavelengths (excitation: 485 nm, emission: 535 nm).
(§4) Nuclease assays were performed in reaction buffer specific for particular enzyme: MUS81/EME1 (50 mM Tris pH=7.5, 5 mM MgCl2, 1 mM DTT a 100 μg/ml BSA), MRE11 (30 mM Bis-Tris pH=7.0, 50 μg/ml BSA, 1 mM DTT a 250 μM MnCl2), EXO1 and FEN1 (50 mM Tris pH=7.5, 1 mM MgCl2, 1 mM DTT a 100 μg/ml BSA). […] Fluorescently labeled DNA was detected by FLA-9000 scanner (Fuji) and the result was evaluated using Multi-Gauge V3.2 software (Fuji). […]

FEN1 = FEN1 (Homo sapiens, UniProt P39748); assay: Nuclease inhibition assay, FEN1 (5′ flap fluorescent DNA substrate, gel readout); type: biochemical; settings: 10 nM enzyme, 5 nM 5′ flap substrate, 15 min at 30° C.
Sequence of FEN1 (P39748 whole entry, species assumed): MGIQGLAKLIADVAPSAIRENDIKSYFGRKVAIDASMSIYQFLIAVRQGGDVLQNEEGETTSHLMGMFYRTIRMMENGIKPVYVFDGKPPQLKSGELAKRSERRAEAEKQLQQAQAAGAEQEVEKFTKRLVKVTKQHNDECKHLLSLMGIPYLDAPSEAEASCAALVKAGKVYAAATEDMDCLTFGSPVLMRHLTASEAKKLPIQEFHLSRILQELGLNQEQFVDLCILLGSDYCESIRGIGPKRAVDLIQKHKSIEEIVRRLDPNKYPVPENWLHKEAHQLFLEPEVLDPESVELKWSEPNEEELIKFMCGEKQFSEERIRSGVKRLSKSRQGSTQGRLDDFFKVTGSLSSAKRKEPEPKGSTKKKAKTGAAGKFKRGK
Source text: as §1, §2, §3, §4

Compound	IC50 (MRE11) [µM]	IC50 (FEN1) [µM]
Nc1c(-c2nc3ccccc3[nH]2)nnc2cc(-c3cccc4ccccc34)nn12 [Preparative Example 5K]	< 50	> 50
Nc1c(-c2nc3ccccc3[nH]2)nnc2cc(-c3ccccc3)nn12 [Preparative Example 5C]	> 50	> 50
CCc1nn2c(N)c(-c3nc4ccccc4[nH]3)nnc2c1-c1ccc(F)cc1 [Preparative Example 5A]	> 50	> 50
